Data as given in patent US20040242669A1, “Method of treating deficits associated with brain injury” (priority 2003, published 2004).
Counter-ions that a name gives are not always drawn. Marks after values point to notes of the source that are not given here.

Tests used:
Assay type in all cases: in vivo, rat
[1] = tested on: animals with hypobaric hypoxia-induced amnesia; test: Step-through passive avoidance, hypobaric hypoxia-induced amnesia; details: for Latency: hypobaric hypoxia, median latency to re-enter dark box, max 300 s
Experimental: (§1) Male rats of the Sprague-Dawley strain (purchased from Charles River, Italy) weighing 280±20 g were used throughout all experiments. The animals were housed two-three to a cage under a constant light-dark cycle (lights on between 8.00 and 20.00) at 21° C. Commercial food and tap water were available ad libitum. All animals were used only once in the behavioral experiments.
(§2) Ropinirole (ropinirole hydrochloride, SmithKline Beecham, Italy) and dihydroergocryptine (DHECP) α-dihydroergocryptine methanesulfonate, Monsanto, Italy) were dissolved in saline and injected subcutaneously (s.c.) at the dose of 0.5 and 1 mg/kg/day for 7 days. In the experiments with kainate-induced convulsions, ropinirole or DHECP were injected intravenously (i.v.) 30 min prior, and again at the same time of the intracerebroventricular (i.c.v) injection on kainic acid; Control animals received an injection of saline alone with the same procedure.
Passive avoidance behaviour was studied in a step-through type of passive avoidance situation (Ader et al., Psycon Sci, 26, 125-128 (1972)). Briefly the rats were adapted to the apparatus consisting of a large dark compartment equipped with a grid floor and a mesh-covered elevated runway attached to the front centre of the dark chamber. Adaptation training was followed by a single trial in which the rats were placed on the elevated platform and allowed to enter the dark box. Three such trials were given on the next day with an intertrial interval of 5 min after the trial. The rats received a single 2-s unavoidable scrambled foot-shock (0.20 mA) immediately after entering the dark compartment. Retention of the response was tested 24 h after the learning trial. The rats were placed on the elevated runway and the latency to re-enter the shock compartment was recorded up to a maximum of 300 s.
(§3) In the first experiment, the effects of ropinirole or DHECP were studied on amnesia induced by hypobaric hypoxia in rats. After a 7-day pretreatment with ropinirole, DHECP or saline, a group of animals was subjected to acute hypobaric hypoxia by means of a hypobaric chamber (Chantiers et Ateliers de Bretagne, France) causing depression to 300 mmHg (Boismare et al., Gerentology, 24, 6-13 (1978)). After 3 min in the chamber, the animals were removed and admitted for behavioral testing. Intact control rats were also introduced into the chamber but not subjected to hypobaric hypoxia.

[2] = tested on: animals with hypobaric hypoxia-induced amnesia; test: Shuttle-box active avoidance acquisition, hypobaric hypoxia-induced amnesia; details: for Learners / CARs: hypobaric hypoxia; for CARs: mean ± S.E.M.
Experimental: as §1, §2
Shuttle-box active avoidance acquisition was studied in a single session test as described in Bohus and De Wied, Endogenous Peptides and Learning and Memory Processes. Academic Press, New York, pp59-775, (1981). Briefly, the rats were trained to avoid the unconditioned stimulus (US) of a scrambled electrical foot-shock (0.20 mA) delivered through the grid floor. The conditioned stimulus (CS) was a buzzer presented for 3 s prior to the US. If no escape occurred within 20 s of CS/US presentation, the shock was terminated. A maximum of 30 conditioning trials were given with a variable intertrial interval averaging 60 s. The learning criterion was five consecutive conditioned avoidance responses (CARs). For those animals that reached the criterion in less than 30 trials, the remaining trials until 30 were considered as CARs. Indexes of avoidance behaviour were the total number of CARs and the percent number of learners per group.
as §3

[3] = tested on: animals with hypobaric hypoxia-induced amnesia; test: Open field spontaneous motor activity, hypobaric hypoxia; details: vs intact controls and saline-treated hypoxic animals
Experimental: as §1, §2
Spontaneous motor activity was scored in a circular open field arena as described by Weijnen and Slangen, Pituitary, Adrenal and the Brain, pp221-235 (1982). Animals were put inside a circular lit-up arena, with the bottom divided into 27 areas of equal size.
as §3

kainate-induced epilepsy = test: Kainate-induced convulsions (epilepsy); details: for Latency (s) to the first tonic-clonic seizure / Seizures (total number) / Mortality (%): kainic acid 10 μg/2 μl i.c.v.; for Latency (s) to the first tonic-clonic seizure / Seizures (total number): 30-min observation, mean ± S.E.M.; for Mortality (%): checked 2 h after convulsive agent
Experimental: as §1
Another group of animals were implanted under ether anaesthesia with a permanent plastic cannula in the right lateral ventricle (foramen interventriculare, Konig and Klippel A 6360) with another cannula into the right jugular vein. These animals were sacrificed at the end of behavioral procedure and the brains were utilized for biochemical analysis. Data were taken from animals showing no abnormalities at the postmortem examination. All experiments were carried out according to the European Community Council Directive 86/609/ECC and efforts were made to minimize animal suffering and to reduce the number of animals used.
as §2, with “[…],” for “ropinirole or DHECP were injected intravenously (i.v.) 30 min prior,”
Kainic acid (Sigma, USA) was dissolved in saline and injected i.c.v. at the dose of 10 μg/2 μi.
Over a 30-min observation, the following items were recorded per each animal receiving an i.c.v. injection of kainic acid: latency in s to the first tonic-clonic seizure; total number of seizures, percent rate of mortality (checked 2 h after the administration of the convulsive agent).
Behavioral scoring of kainate-induced convulsions was started immediately after i.c.v. injection of the drug and proceeded for 30 min. Ropinirole, DHECP or saline were injected twice, 30 min prior and, again, at the same time of the i.c.v. administration of kainic acid.

[4] = hypobaric hypoxia-induced amnesia, summary of Table 1
[5] = kainate-induced seizures, summary of Table 3

What does the source list for CCCN(CCC)CCc1cccc2c1CC(=O)N2 [ROP, 4-[2-(di-n-propylamino)ethyl]-1,3-dihydro-2H-indolin-2-one hydrochloride]?
latency to re-enter the dark box (effect of treatment, in words) [1, 4]: increase; Latency ([1]; 0.5 mg/kg/day s.c. for 7 days): 47^e,f; Latency ([1]; 1 mg/kg/day s.c. for 7 days): 65^f; number of CARs and percent number of learners in the shuttle-box (effect of treatment, in words) [2, 4]: increase; Learners ([2]; 0.5 mg/kg/day s.c. for 7 days): 60^d percent; CARs ([2]; 0.5 mg/kg/day s.c. for 7 days): 16.8 ± 1.3^b; Learners ([2]; 1 mg/kg/day s.c. for 7 days): 70^d percent; CARs ([2]; 1 mg/kg/day s.c. for 7 days): 17.2 ± 1.5^b; ambulation and rearing (effect of treatment, in words) [3]: higher; latency to the first tonic-clonic seizure (effect of treatment, in words) (kainate-induced epilepsy; [5]): did not modify; percent mortality rate (effect of treatment, in words) (kainate-induced epilepsy; [5]): significant decrease; total number of kainate-induced seizures (effect of treatment, in words) (kainate-induced epilepsy; [5]): did not modify; Latency (s) to the first tonic-clonic seizure (kainate-induced epilepsy; 0.5 mg/kg injected s.c. twice (30 min prior and at kainic acid)): 69.4 ± 8.9 s; Seizures (total number) (kainate-induced epilepsy; 0.5 mg/kg injected s.c. twice): 7.1 ± 0.9; Mortality (%) (kainate-induced epilepsy; 0.5 mg/kg injected s.c. twice): 20^a %; Latency (s) to the first tonic-clonic seizure (kainate-induced epilepsy; 1 mg/kg injected s.c. twice (30 min prior and at kainic acid)): 65.4 ± 6.9 s; Seizures (total number) (kainate-induced epilepsy; 1 mg/kg injected s.c. twice): 6.9 ± 0.9; Mortality (%) (kainate-induced epilepsy; 1 mg/kg injected s.c. twice): 10^a %
